Experimental data taken from US20240294499A1, “TARGETED PROTEIN DEGRADATION USING BIFUNCTIONAL COMPOUNDS THAT BIND UBIQUITIN LIGASE AND TARGET MCL-1 PROTEIN” (Captor Therapeutics S.A., priority 2021, published 2024).

How the values were obtained:
[1] = test system: ARH-77 cells; test: Cell viability assay (CellTiter-Glo), ARH-77; format: cell-based; conditions: Homo sapiens, ARH-77, 24 hours incubation, 1% FBS, read-out: Average pIC50 by molecule ARH-77 (converted)
Procedure, shortened: (§1)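 Luminescent ATP readout (CellTiter-Glo) at 24 hours measured viability, expressed relative to DMSO-treated wells. Compound was added directly to the medium as a 9–12-point threefold series starting at 30 uM, at 0.5% final DMSO. The medium contained FBS reduced to 1%.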

[2] = biological target: [MCL-1]-[compound of formula (I)]-[CRBN/DDB1] complex (Homo sapiens, UniProt Q07820+Q96SW2); test: HTRF ternary complex assay; format: binding; conditions: ternary complex formation; read-out: HTRF ternary complex Average pEC50 by molecule (converted)
Protocol: The effect of the bifunctional compounds of the invention on the formation of a ternary complex composed of [MCL-1]-[compound of formula (I)]-[CRBN/DDB1] was investigated.
Mix of protein solution were prepared: • 48 nM hMcl-1 and 105.6 nM CRBN was prepared in PPI Europium detection buffer with 2 mM DTT. • Acceptor and donor stock solutions were diluted 100 times in PPI Europium detection buffer. Equal volumes of both reagents were mixed. Finally giving 3 nM of Streptavidin-Eu cryptate […] and 6.67 nM of Anti-6× his-d2 […].
5 μl of protein mix was dispensed to all wells. The tested compounds in dose-response were dispensed onto a white 384-well low volume plate (Greiner, 784075). DMSO was backfilled to all wells, resulting in a final DMSO content of 0.5%. Wells containing only DMSO served as background. Next, 5 μl of solution with donor and acceptor was added to the wells.
The plate was sealed with transparent film and shaken using a VibroTurbulator for 60 see at level 3. The plate was then spun down shortly (10 s, 1000 rcf) and incubated at 25° C. for 180 min.
The read-out was performed with plate reader (Pherastar, BMG Labtech) in time resolved fluorescence mode. Filterset: TR 337 665 620.
The results were analyzed as follows: • 1) an average of fluorescence for background signal was calculated and used as a negative control; • 2) raw fluorescence values for tested compounds were normalized against negative controls; • 3) bell shape curve was fitted to a gaussian distribution using a non-linear least squares Gauss-Newton algorithm; • 4) EC50 and pEC50 values were determined.

[3] = test system: MV-4-11 cells; test: Cell viability assay (CellTiter-Glo), MV-4-11; format: cell-based; conditions: Homo sapiens, MV4-11, 24 hours incubation, 1% FBS, read-out: Average pIC50 by molecule MV-4-11 (converted)
Procedure, shortened: as §1

[MCL-1]-[compound of formula (I)]-[CRBN/DDB1] complex, sequence (Q07820 whole entry): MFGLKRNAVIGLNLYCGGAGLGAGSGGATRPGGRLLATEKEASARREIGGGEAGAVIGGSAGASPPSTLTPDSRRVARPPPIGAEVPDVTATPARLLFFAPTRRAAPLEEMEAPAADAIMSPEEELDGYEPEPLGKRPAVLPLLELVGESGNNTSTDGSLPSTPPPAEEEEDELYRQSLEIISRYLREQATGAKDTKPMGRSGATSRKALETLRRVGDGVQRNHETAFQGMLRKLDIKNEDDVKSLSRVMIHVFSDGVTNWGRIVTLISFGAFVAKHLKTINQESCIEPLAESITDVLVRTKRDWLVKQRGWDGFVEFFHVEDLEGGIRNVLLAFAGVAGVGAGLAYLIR
[MCL-1]-[compound of formula (I)]-[CRBN/DDB1] complex, sequence (Q96SW2 whole entry): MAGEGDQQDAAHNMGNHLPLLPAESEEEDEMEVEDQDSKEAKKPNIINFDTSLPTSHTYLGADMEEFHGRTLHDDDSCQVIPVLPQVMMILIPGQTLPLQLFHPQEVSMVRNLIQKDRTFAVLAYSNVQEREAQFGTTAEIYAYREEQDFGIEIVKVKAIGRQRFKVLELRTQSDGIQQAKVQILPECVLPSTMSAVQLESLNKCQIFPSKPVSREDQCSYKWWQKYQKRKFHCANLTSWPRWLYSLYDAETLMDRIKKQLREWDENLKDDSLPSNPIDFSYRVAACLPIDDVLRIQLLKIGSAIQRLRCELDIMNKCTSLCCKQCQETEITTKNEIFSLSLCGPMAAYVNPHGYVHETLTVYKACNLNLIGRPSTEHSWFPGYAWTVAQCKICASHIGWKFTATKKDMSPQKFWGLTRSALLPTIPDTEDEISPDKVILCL
[MCL-1]-[compound of formula (I)]-[CRBN/DDB1] complex, sequence (Q16531 whole entry partner): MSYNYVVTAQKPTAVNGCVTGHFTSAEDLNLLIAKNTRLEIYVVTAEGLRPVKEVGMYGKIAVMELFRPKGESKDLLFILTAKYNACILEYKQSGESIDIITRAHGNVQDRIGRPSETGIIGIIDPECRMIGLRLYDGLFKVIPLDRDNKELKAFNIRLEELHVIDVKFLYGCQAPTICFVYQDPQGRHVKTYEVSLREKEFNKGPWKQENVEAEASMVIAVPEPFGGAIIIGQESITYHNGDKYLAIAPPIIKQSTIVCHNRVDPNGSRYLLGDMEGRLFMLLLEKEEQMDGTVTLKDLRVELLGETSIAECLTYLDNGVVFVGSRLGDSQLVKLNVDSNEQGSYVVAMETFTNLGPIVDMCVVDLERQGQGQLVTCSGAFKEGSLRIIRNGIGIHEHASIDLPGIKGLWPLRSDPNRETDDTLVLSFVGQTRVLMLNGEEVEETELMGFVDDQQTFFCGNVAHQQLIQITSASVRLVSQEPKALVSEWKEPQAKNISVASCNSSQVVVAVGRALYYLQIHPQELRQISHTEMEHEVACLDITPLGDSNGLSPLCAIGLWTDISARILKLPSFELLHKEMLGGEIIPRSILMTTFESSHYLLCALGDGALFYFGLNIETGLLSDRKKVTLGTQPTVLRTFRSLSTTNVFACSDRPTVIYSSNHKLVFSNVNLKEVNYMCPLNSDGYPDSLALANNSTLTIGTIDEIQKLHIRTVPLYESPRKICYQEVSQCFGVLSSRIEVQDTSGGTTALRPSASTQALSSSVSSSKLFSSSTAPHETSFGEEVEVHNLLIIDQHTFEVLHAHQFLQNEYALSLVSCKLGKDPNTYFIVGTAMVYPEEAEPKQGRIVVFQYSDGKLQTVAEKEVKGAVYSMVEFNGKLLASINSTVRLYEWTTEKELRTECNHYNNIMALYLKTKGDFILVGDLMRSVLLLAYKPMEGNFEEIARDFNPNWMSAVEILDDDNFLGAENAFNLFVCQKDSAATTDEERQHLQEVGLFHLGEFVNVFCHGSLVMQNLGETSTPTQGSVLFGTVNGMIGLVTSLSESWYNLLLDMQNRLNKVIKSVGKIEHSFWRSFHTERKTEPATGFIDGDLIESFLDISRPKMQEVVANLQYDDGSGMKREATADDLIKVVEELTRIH

EC50 [2] [nM]	IC50 [3] [nM]	SMILES	IC50 [1] [nM]
< 100		Cc1nn(C)c(C)c1-c1c(Cl)ccc2c(CCCOc3cccc4cc(F)ccc34)c(C(=O)O)n(CCN3CC4(CCN(C(=O)COc5cccc6c5CN(C5CCC(=O)NC5=O)C6=O)C4)C3)c12 (stereo not shown) [Compound 305, 6-Chloro-1-(2-(6-(2-((2-(2,6-dioxopiperidin-3-yl)-1-oxoisoindolin-4-yl)oxy)acetyl)-2,6-diazaspiro[3.4]octan-2-yl)ethyl)-3-(3-((6-fluoronaphthalen-1-yl)oxy)propyl)-7-(1,3,5-trimethyl-1H-pyrazol-4-yl)-1H-indole-2-carboxylic acid]	
< 10	≤ 100	Cc1nn(C)c(C)c1-c1c(Cl)ccc2c(CCCOc3cccc4cc(F)ccc34)c(C(=O)O)n(CCC3CCC(NC(=O)COc4cccc5c4CN(C4CCC(=O)NC4=O)C5=O)CN3C)c12 (stereo not shown) [Compound 306, 6-Chloro-1-{2-[5-(2-{[2-(2,6-dioxopiperidin-3-yl)-1-oxo-2,3-dihydro-1H-isoindol-4-yl]oxy}acetamido)-1-methylpiperidin-2-yl]ethyl}-3-{3-[(6-fluoronaphthalen-1-yl)oxy]propyl}-7-(1,3,5-trimethyl-1H-pyrazol-4-yl)-1H-indole-2-carboxylic acid]	> 10000
< 100		Cc1nn(C)c(C)c1-c1c(Cl)ccc2c(CCCOc3cccc4cc(F)ccc34)c(C(=O)O)n(CCN3CCN(C(=O)C(C)(C)Oc4cccc5c4CN(C4CCC(=O)NC4=O)C5=O)CC3)c12 (stereo not shown) [Compound 311, 6-Chloro-1-{2-[4-(2-{[2-(2,6-dioxopiperidin-3-yl)-1-oxo-2,3-dihydro-1H-isoindol-4-yl]oxy}-2-methylpropanoyl)piperazin-1-yl]ethyl}-3-{3-[(6-fluoronaphthalen-1-yl)oxy]propyl}-7-(1,3,5-trimethyl-1H-pyrazol-4-yl)-1H-indole-2-carboxylic acid]	
< 100		Cc1nn(C)c(C)c1-c1c(Cl)ccc2c(CCCOc3cccc4cc(F)ccc34)c(C(=O)O)n(CCN3CCN(C(=O)CSc4cccc5c4CN(C4CCC(=O)NC4=O)C5=O)CC3)c12 (stereo not shown) [Compound 322, 6-Chloro-1-(2-(4-(2-((2-(2,6-dioxopiperidin-3-yl)-1-oxoisoindolin-4-yl)thio)acetyl)piperazin-1-yl)ethyl)-3-(3-((6-fluoronaphthalen-1-yl)oxy)propyl)-7-(1,3,5-trimethyl-1H-pyrazol-4-yl)-1H-indole-2-carboxylic acid]	
< 10	≤ 1000	Cc1nn(C)c(C)c1-c1c(Cl)ccc2c(CCCOc3cccc4cc(F)ccc34)c(C(=O)O)n(CCN3CCC(C(=O)N4CCN(c5cc6c(cc5F)C(=O)N(C5CCC(=O)NC5=O)C6=O)CC4)CC3)c12 (stereo not shown) [Compound 333, 6-Chloro-1-[2-(4-{4-[2-(2,6-dioxopiperidin-3-yl)-6-fluoro-1,3-dioxo-2,3-dihydro-1H-isoindol-5-yl]piperazine-1-carbonyl}piperidin-1-yl)ethyl]-3-{3-[(6-fluoronaphthalen-1-yl)oxy]propyl}-7-(1,3,5-trimethyl-1H-pyrazol-4-yl)-1H-indole-2-carboxylic acid]	
< 10	≤ 100	Cc1nn(C)c(C)c1-c1c(Cl)ccc2c(CCCOc3cccc4cc(F)ccc34)c(C(=O)O)n(CCN3CCN(CC4CN(c5cc6c(cc5F)C(=O)N(C5CCC(=O)NC5=O)C6=O)C4)CC3)c12 (stereo not shown) [Compound 334, 6-Chloro-1-(2-(4-((1-(2-(2,6-dioxopiperidin-3-yl)-6-fluoro-1,3-dioxoisoindolin-5-yl)azetidin-3-yl)methyl)piperazin-1-yl)ethyl)-3-(3-((6-fluoronaphthalen-1-yl)oxy)propyl)-7-(1,3,5-trimethyl-1H-pyrazol-4-yl)-1H-indole-2-carboxylic acid]	> 3160
< 10	≤ 31.6	Cc1nn(C)c(C)c1-c1c(Cl)ccc2c(CCCOc3cccc4cc(F)ccc34)c(C(=O)O)n(CCN3CCN(C4CN(c5cc6c(cc5F)C(=O)N(C5CCC(=O)NC5=O)C6=O)C4)CC3)c12 (stereo not shown) [Compound 335, 6-Chloro-1-(2-(4-(1-(2-(2,6-dioxopiperidin-3-yl)-6-fluoro-1,3-dioxoisoindolin-5-yl)azetidin-3-yl)piperazin-1-yl)ethyl)-3-(3-((6-fluoronaphthalen-1-yl)oxy)propyl)-7-(1,3,5-trimethyl-1H-pyrazol-4-yl)-1H-indole-2-carboxylic acid]	> 3160
< 100		Cc1noc(C)c1-c1c(Cl)ccc2c(CCCOc3cccc4cc(F)ccc34)c(C(=O)O)n(CCN3CCN(C(=O)COc4cccc5c4CN(C4CCC(=O)NC4=O)C5=O)CC3)c12 (stereo not shown) [Compound 347, 6-Chloro-7-(3,5-dimethylisoxazol-4-yl)-1-(2-(4-(2-((2-(2,6-dioxopiperidin-3-yl)-1-oxoisoindolin-4-yl)oxy)acetyl)piperazin-1-yl)ethyl)-3-(3-((6-fluoronaphthalen-1-yl)oxy)propyl)-1H-indole-2-carboxylic acid]	

The remaining lines, values behind:

SMILES	EC50 [2] [nM]	IC50 [3] [nM]	IC50 [1] [nM]
Cc1nn(C)c(C)c1-c1c(Cl)ccc2c(CCCOc3cccc4cc(F)ccc34)c(C(=O)O)n(CCOCCCn3c(C)nc4c(C(=O)NC5CCC(=O)NC5=O)cccc43)c12 (stereo not shown) [Compound 282, 6-Chloro-1-[2-(3-{4-[(2,6-dioxopiperidin-3-yl)carbamoyl]-2-methyl-1H-1,3-benzodiazol-1-yl}propoxy)ethyl]-3-{3-[(6-fluoronaphthalen-1-yl)oxy]propyl}-7-(1,3,5-trimethyl-1H-pyrazol-4-yl)-1H-indole-2-carboxylic acid]	< 100	≤ 31.6	> 3160
Cc1nc2cc(NCC(=O)N3CCN(CCn4c(C(=O)O)c(CCCOc5cccc6cc(F)ccc56)c5ccc(Cl)c(-c6c(C)nn(C)c6C)c54)CC3)ccc2cc1C1CCC(=O)NC1=O (stereo not shown) [Compound 285, 6-Chloro-1-(2-(4-((3-(2,6-dioxopiperidin-3-yl)-2-methylquinolin-7-yl)glycyl)piperazin-1-yl)ethyl)-3-(3-((6-fluoronaphthalen-1-yl)oxy)propyl)-7-(1,3,5-trimethyl-1H-pyrazol-4-yl)-1H-indole-2-carboxylic acid]	< 10	≤ 100	> 10000
Cc1nc2cc(C(=O)N3CCN(CCn4c(C(=O)O)c(CCCOc5cccc6cc(F)ccc56)c5ccc(Cl)c(-c6c(C)nn(C)c6C)c54)CC3)ccc2cc1C1CCC(=O)NC1=O (stereo not shown) [Compound 291, 6-Chloro-1-(2-{4-[3-(2,6-dioxopiperidin-3-yl)-2-methylquinoline-7-carbonyl]piperazin-1-yl}ethyl)-3-{3-[(6-fluoronaphthalen-1-yl)oxy]propyl}-7-(1,3,5-trimethyl-1H-pyrazol-4-yl)-1H-indole-2-carboxylic acid]	< 100		
Cc1nn(C)c(C)c1-c1c(Cl)ccc2c(CCCOc3cccc4cc(F)ccc34)c(C(=O)O)n(CCC3CN(C(=O)COc4cccc5c4CN(C4CCC(=O)NC4=O)C5=O)C3)c12 (stereo not shown) [Compound 299, 6-Chloro-1-(2-(1-(2-((2-(2,6-dioxopiperidin-3-yl)-1-oxoisoindolin-4-yl)oxy)acetyl)azetidin-3-yl)ethyl)-3-(3-((6-fluoronaphthalen-1-yl)oxy)propyl)-7-(1,3,5-trimethyl-1H-pyrazol-4-yl)-1H-indole-2-carboxylic acid]	< 100	≤ 100	> 10000
Cc1nn(C)c(C)c1-c1c(Cl)ccc2c(CCCOc3cccc4cc(F)ccc34)c(C(=O)O)n(CCN3CC4(CCN(C(=O)COc5cccc6c5CN(C5CCC(=O)NC5=O)C6=O)CC4)C3)c12 (stereo not shown) [Compound 302, 6-Chloro-1-(2-(7-(2-((2-(2,6-dioxopiperidin-3-yl)-1-oxoisoindolin-4-yl)oxy)acetyl)-2,7-diazaspiro[3.5]nonan-2-yl)ethyl)-3-(3-((6-fluoronaphthalen-1-yl)oxy)propyl)-7-(1,3,5-trimethyl-1H-pyrazol-4-yl)-1H-indole-2-carboxylic acid]	< 10		
Cc1nn(C)c(C)c1-c1c(Cl)ccc2c(CCCOc3cccc4cc(F)ccc34)c(C(=O)O)n(CCN3CC4(C3)CN(C(=O)COc3cccc5c3CN(C3CCC(=O)NC3=O)C5=O)C4)c12 (stereo not shown) [Compound 303]	< 100		
Cc1nn(C)c(C)c1-c1c(Cl)ccc2c(CCCOc3cccc4cc(F)ccc34)c(C(=O)O)n(CCN3CC4(CCCN(C(=O)COc5cccc6c5CN(C5CCC(=O)NC5=O)C6=O)C4)C3)c12 (stereo not shown) [Compound 304, 6-Chloro-1-(2-(6-(2-((2-(2,6-dioxopiperidin-3-yl)-1-oxoisoindolin-4-yl)oxy)acetyl)-2,6-diazaspiro[3.5]nonan-2-yl)ethyl)-3-(3-((6-fluoronaphthalen-1-yl)oxy)propyl)-7-(1,3,5-trimethyl-1H-pyrazol-4-yl)-1H-indole-2-carboxylic acid]	< 100		
